According to the supplement of paper PMC10307832:

Key:
Test in all cases: relative viability (nuclei count vs DMSO), 5 days (fraction); higher = more cells survive
[1] = compound: C1CNCCC1C2=CC(=NN2)C3=CC=NC=C3 + C[C@@H](Oc1cc(-c2cnn(C3CCNCC3)c2)cnc1N)c1c(Cl)ccc(F)c1Cl [Crizotinib] (partner 1 µM)
In short: (§1)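 Relative viability equals treated-well nuclei counts divided by vehicle-well nuclei counts. Counts came from 4× images of lung cancer cell lines grown in 1536-well plates for 5 days after pin-tool dosing on the day after seeding. Dosing used one drug alone or a fixed anchor-drug dose plus five library-drug doses (not always all listed) in √10 steps, and values are medians of duplicate plates.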

[2] = compound: C1CNCCC1C2=CC(=NN2)C3=CC=NC=C3 + O=C(CCCCCCC(=O)Nc1ccccc1)NO [Vorinostat] (partner 1 µM)
In short: as §1

Tanzisertib + Navitoclax = compound: O[C@H]1CC[C@H](Nc2ncc3nc(Nc4c(F)cc(F)cc4F)n([C@H]4CCOC4)c3n2)CC1 [Tanzisertib] + CC1(C)CCC(c2ccc(Cl)cc2)=C(CN2CCN(c3ccc(C(=O)NS(=O)(=O)c4ccc(N[C@H](CCN5CCOCC5)CSc5ccccc5)c(S(=O)(=O)C(F)(F)F)c4)cc3)CC2)C1 [Navitoclax] (partner 0.5 µM)
In short: as §1

Tanzisertib + Olaparib = compound: O[C@H]1CC[C@H](Nc2ncc3nc(Nc4c(F)cc(F)cc4F)n([C@H]4CCOC4)c3n2)CC1 [Tanzisertib] + O=C(c1cc(Cc2n[nH]c(=O)c3ccccc23)ccc1F)N1CCN(C(=O)C2CC2)CC1 [Olaparib] (partner 8 µM)
In short: as §1

Cell Line | relative viability ([1]; first compound 0.08 µM) | relative viability ([1]; first compound 0.8 µM) | relative viability ([1]; first compound 2.53 µM) | relative viability ([1]; first compound 8 µM) | relative viability ([2]; first compound 0.08 µM) | relative viability ([2]; first compound 2.53 µM) | relative viability ([2]; first compound 8 µM) | relative viability (Tanzisertib + Navitoclax; first compound 0.08 µM) | relative viability (Tanzisertib + Navitoclax; first compound 0.253 µM) | relative viability (Tanzisertib + Navitoclax; first compound 0.8 µM) | relative viability (Tanzisertib + Navitoclax; first compound 2.53 µM) | relative viability (Tanzisertib + Navitoclax; first compound 8 µM) | relative viability (Tanzisertib + Olaparib; first compound 0.08 µM) | relative viability (Tanzisertib + Olaparib; first compound 0.253 µM) | relative viability (Tanzisertib + Olaparib; first compound 0.8 µM) | relative viability (Tanzisertib + Olaparib; first compound 2.53 µM) | relative viability (Tanzisertib + Olaparib; first compound 8 µM) | relative viability ([2]; first compound 0.8 µM)
NCI-H23 | 0.431 | 0.499 | 0.499 | 0.518 | 0.656 | 0.668 | 0.721 | 0.964 | 0.75 | 0.912 | 0.86 | 0.819 | 0.316 | 0.341 | 0.36 | 0.301 | 0.314 | –
NCI-H1651 | 0.825 | 0.832 | 0.872 | 0.854 | 0.512 | 0.577 | 0.589 | 1.07 | 0.915 | 1.18 | 1.11 | 0.854 | 0.206 | 0.182 | 0.196 | 0.2 | 0.175 | 0.581
NCI-H1975 | 0.988 | 1.05 | 0.963 | 0.889 | 0.74 | 0.702 | 0.685 | 1.28 | 1.09 | 1.21 | 1.29 | 1.03 | 0.898 | 0.836 | 0.807 | 0.818 | 0.752 | 0.758
COR-L23 | 0.651 | 0.615 | 0.719 | 0.695 | 0.455 | 0.631 | 0.447 | 1.15 | 1.05 | 0.979 | 1.24 | 1.03 | 0.339 | 0.353 | 0.347 | 0.417 | 0.353 | 0.56
HCC-44 | 0.889 | 0.908 | 0.842 | 0.839 | 1.11 | 0.998 | 1.11 | 1.18 | 0.985 | 0.992 | 0.916 | 0.973 | 0.99 | 1.08 | 0.965 | 1.03 | 1.11 | 1.2
LOU-NH91 | 0.718 | 0.733 | 0.78 | 0.742 | 0.925 | 1.05 | 0.955 | 0.81 | 0.664 | 0.747 | 0.675 | 0.497 | 0.948 | 0.896 | 0.989 | 0.89 | 0.727 | 1.02
NCI-H441 | 0.709 | 0.713 | 0.853 | 0.862 | 0.593 | 0.783 | 0.77 | 0.456 | 0.601 | 0.629 | 0.773 | 0.584 | 0.642 | 0.611 | 0.545 | 0.496 | 0.535 | 0.944
NCI-H647 | 1.05 | 1.08 | 1.01 | 1.06 | 0.572 | 0.632 | 0.635 | 1.11 | 1.18 | 1.22 | 1.3 | 0.943 | 0.875 | 0.487 | 0.505 | 0.657 | 0.65 | 0.739
NCI-H1915 | 0.88 | 0.906 | 0.855 | 0.909 | 0.542 | 0.519 | 0.55 | 0.793 | 0.786 | 0.78 | 0.805 | 0.83 | 0.29 | 0.271 | 0.244 | 0.245 | 0.25 | 0.554
NCI-H1734 | 0.663 | 0.687 | 0.653 | 0.654 | 0.749 | 0.89 | 0.85 | 1.03 | 0.777 | 0.852 | 0.867 | 0.757 | 0.66 | 0.626 | 0.604 | 0.671 | 0.687 | 0.873
NCI-H1993 | 0.867 | 0.876 | 0.767 | 0.896 | 0.883 | 0.767 | 1.03 | 1.08 | 0.909 | 0.947 | 0.924 | 0.803 | 0.985 | 0.928 | 1.17 | 1.04 | 0.766 | 0.722
LK-2 | 0.232 | 0.252 | 0.221 | 0.265 | 0.304 | 0.363 | 0.126 | 0.871 | 0.847 | 0.87 | 0.884 | 0.9 | 0.772 | 0.835 | 0.712 | 0.669 | 0.769 | 0.26
HCC-78 | 0.369 | – | 0.399 | 0.381 | 0.404 | 0.441 | 0.475 | 0.705 | 0.741 | 0.766 | 0.801 | 0.673 | 0.922 | 0.73 | 0.854 | 0.852 | 0.622 | –
NCI-H2405 | 0.87 | 0.777 | 0.873 | 0.825 | 1.04 | 1.06 | 0.901 | 0.968 | 0.837 | 1.02 | 1.03 | 0.688 | 0.924 | 0.902 | 0.869 | 1.03 | 0.869 | 0.993
HOP-62 | 0.682 | 1.11 | 0.942 | 0.978 | 0.606 | 0.733 | 0.6 | 0.978 | 0.994 | 0.819 | 1.11 | 1.26 | 0.268 | 0.426 | 0.587 | 0.643 | 0.556 | 0.635
BEN | 0.644 | 0.87 | 0.878 | 0.823 | 0.489 | 0.635 | 0.57 | 0.0685 | 0.0675 | 0.0797 | 0.072 | 0.0632 | 1.05 | 0.968 | 1.05 | 1.12 | 0.997 | 0.611
SW 1573 | 0.805 | 0.713 | 0.993 | 0.795 | – | 1.01 | 0.967 | 1.02 | 0.994 | 0.974 | 1.05 | 0.909 | 0.453 | 0.406 | 0.475 | 0.455 | 0.443 | 0.642
ChaGo-K-1 | 0.926 | 1.15 | 1.08 | 1.09 | 0.731 | 0.764 | 0.765 | 1.01 | 1.08 | 1.1 | 0.79 | 0.683 | 0.511 | 0.422 | 0.453 | 0.45 | 0.438 | 0.806
